Experiment [1] addresses T1, T-type Ca channel (α1G) (Homo sapiens, UniProt O43497).
T1 construct: expressed in transfected cells; host or cells: BHK (baby hamster kidney) cells
Briefly: Pharmacological Test Example 1: whole cell patch clamp, Ca current inhibition in BHK cells expressing T-type Ca channel. Type of experiment: cell-based. The protocol: (§1) Pharmacological Test Example 1 (effect on L-type and T-type Ca (calcium) channel expressed in mammalian cells (BHK cells))
(§2) In this test, an electrophysiological evaluation was carried out by use of BHK (baby hamster kidney) cells in which L-type Ca channel or T-type Ca channel (α1G) was expressed according to the method of Wakamori M et al. (Wakamori M et al.: J Biol Chem 273, 34857-34867,1998) based on the whole cell patch clamp method. Each Ca-ion current was measured through a patch clamp amplifier as an inward current when depolarization pulse (10 mV in L-type Ca channel, −20 mV in T-type Ca channel) was applied to cells maintained at a membrane potential of −80 mV. Optically active R-form or S-form of efonidipine was dissolved in extracellular solution and applied with perfusion. At 5 minutes after the application, any variation in Ca-ion current was measured. The results are shown in Ca current inhibition (%) of the compound of the present invention to Ca current (100%) in vehicle control.
Background: In patch-clamp work, channel activity is measured electrically.

The test system of experiment [2] is L-type Ca channel. Kind of experiment: Pharmacological Test Example 1: whole cell patch clamp, Ca current inhibition in BHK cells expressing L-type Ca channel. Type of experiment: cell-based. To be noted: for Inhibition (%): L-type Ca channel, BHK cells, 5 minutes after application, mean ± SE. The protocol:
as §1, §2

[3] abbreviates: T-type Ca channel, concentration 0.1 μM, BHK cells, 5 minutes after application, mean ± SE, 0.1 µM.

T1 sequence (O43497 whole entry): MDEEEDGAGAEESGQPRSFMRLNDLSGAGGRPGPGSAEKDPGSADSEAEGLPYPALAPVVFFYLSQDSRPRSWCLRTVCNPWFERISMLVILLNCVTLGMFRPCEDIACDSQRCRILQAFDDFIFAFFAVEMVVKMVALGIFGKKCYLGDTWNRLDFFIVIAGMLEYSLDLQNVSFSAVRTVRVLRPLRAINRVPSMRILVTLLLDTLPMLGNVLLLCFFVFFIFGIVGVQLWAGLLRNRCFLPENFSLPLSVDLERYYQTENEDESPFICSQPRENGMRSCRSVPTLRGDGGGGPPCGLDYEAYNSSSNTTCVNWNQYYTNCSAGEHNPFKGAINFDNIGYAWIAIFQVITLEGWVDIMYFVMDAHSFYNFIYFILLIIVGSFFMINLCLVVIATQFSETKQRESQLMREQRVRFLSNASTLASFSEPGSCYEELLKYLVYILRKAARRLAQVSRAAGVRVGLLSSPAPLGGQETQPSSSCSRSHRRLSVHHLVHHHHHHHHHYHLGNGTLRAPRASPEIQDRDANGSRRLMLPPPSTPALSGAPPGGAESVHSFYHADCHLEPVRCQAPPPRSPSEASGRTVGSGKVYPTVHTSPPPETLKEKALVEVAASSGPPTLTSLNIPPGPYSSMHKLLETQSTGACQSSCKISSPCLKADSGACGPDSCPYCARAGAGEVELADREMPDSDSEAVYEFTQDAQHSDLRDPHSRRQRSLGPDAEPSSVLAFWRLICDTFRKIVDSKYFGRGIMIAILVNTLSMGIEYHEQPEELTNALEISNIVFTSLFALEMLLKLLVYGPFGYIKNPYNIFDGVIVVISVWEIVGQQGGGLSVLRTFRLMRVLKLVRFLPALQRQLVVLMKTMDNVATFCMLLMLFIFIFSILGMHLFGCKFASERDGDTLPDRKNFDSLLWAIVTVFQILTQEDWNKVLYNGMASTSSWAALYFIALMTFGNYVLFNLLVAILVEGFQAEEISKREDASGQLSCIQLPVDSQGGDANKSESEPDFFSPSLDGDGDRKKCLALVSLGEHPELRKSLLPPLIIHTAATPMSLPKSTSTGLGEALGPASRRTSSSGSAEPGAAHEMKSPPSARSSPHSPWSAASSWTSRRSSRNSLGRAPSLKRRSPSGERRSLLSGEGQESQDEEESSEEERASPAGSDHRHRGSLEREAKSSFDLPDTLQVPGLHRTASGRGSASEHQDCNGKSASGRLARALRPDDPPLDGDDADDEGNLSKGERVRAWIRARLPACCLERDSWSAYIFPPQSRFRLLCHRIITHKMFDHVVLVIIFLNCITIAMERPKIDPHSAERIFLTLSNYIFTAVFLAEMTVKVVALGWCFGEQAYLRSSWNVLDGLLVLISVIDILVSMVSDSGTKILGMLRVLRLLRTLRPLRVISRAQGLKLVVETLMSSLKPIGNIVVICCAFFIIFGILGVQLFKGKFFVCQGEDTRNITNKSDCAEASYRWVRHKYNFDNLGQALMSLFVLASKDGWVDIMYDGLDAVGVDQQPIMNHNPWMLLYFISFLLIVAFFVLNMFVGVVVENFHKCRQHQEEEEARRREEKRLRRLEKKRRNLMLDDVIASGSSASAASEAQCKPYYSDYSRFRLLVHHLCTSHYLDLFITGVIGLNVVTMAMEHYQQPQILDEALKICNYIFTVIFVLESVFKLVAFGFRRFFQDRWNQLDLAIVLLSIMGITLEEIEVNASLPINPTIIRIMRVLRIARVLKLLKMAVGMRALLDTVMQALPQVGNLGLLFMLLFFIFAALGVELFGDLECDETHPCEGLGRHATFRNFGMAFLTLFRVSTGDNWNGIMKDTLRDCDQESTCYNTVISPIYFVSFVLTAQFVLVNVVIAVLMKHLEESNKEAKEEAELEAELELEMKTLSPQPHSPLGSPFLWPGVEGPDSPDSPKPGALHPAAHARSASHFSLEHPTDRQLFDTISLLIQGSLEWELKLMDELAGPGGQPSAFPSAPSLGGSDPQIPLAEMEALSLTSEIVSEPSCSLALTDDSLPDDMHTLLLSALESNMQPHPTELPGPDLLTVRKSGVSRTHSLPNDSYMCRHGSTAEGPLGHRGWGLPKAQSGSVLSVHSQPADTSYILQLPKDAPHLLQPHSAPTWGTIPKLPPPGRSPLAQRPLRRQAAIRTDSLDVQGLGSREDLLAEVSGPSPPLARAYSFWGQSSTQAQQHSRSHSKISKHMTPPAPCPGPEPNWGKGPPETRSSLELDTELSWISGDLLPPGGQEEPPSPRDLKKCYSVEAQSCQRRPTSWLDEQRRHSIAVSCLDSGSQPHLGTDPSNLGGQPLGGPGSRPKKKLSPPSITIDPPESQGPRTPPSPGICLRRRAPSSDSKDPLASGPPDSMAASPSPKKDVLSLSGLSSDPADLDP

Take `CC1=C(C(=O)OCCN(Cc2ccccc2)c2ccccc2)C(c2cccc([N+](=O)[O-])c2)C(P2(=O)OCC(C)(C)CO2)=C(C)N1` (centres unmarked) [Efonidipine R-form, 1,4-dihydro-2,6-dimethyl-5-(5,5-dimethyl-2-oxo-1,3,2-dioxaphosphorinan-2-yl)-4-(3-nitrophenyl)-3-pyridine carboxylic acid 2-[benzyl (phenyl)amino]ethylester]: the inhibition (as a rule, the share of the control response that was lost under treatment) at 1 µM in experiment [1] (BHK, T-type Ca channel, concentration 1 μM, BHK cells, 5 minutes after application, mean ± SE) was 41.7 ± 5.3%. Moreover, in experiment [1] (BHK, T-type Ca channel, concentration 10 μM, BHK cells, 5 minutes after application, mean ± SE), the inhibition at 10 µM amounted to 72.7 ± 5.6%. Also, the “Inhibition (%)” value in experiment [1] (setting [3]) was 19.4 ± 4.88%; in experiment [2] (concentration 10 μM), 2.2 ± 3.4%. In experiment [1] (T-type versus L-type Ca channel), the “selectivity for T-type Ca channel” value is “high selectivity”. For the same molecule, the “inhibition for T-type Ca channel (in words)” value in experiment [1] (concentration of 0.1 μM or more) is given as “concentration-dependent inhibition”. Further, the “inhibition for L-type Ca channel (in words)” value in experiment [2] (concentration of 10 μM) is listed as “did not show any inhibition”.

Regarding `CC1=C(C(=O)OCCN(Cc2ccccc2)c2ccccc2)C(c2cccc([N+](=O)[O-])c2)C(P2(=O)OCC(C)(C)CO2)=C(C)N1` (centres unmarked) [Efonidipine S-form, 1,4-dihydro-2,6-dimethyl-5-(5,5-dimethyl-2-oxo-1,3,2-dioxaphosphorinan-2-yl)-4-(3-nitrophenyl)-3-pyridine carboxylic acid 2-[benzyl (phenyl)amino]ethylester, reference compound], the “Inhibition (%)” value is listed as 7.7% in experiment [1] (setting [3]); 42.9 ± 8.4% in experiment [1] (T-type Ca channel, concentration 1 μM, BHK cells, 5 minutes after application, mean ± SE, 1 µM); 75.6 ± 7.1% in experiment [1] (T-type Ca channel, concentration 10 μM, BHK cells, 5 minutes after application, mean ± SE, 10 µM); 55.6±7.1% in experiment [2] (concentration 1 μM).
